Reference: ChEMBL document CHEMBL3785039, “The pharmacokinetics of diclofenac sodium following intravenous and oral administration” (Eur J Clin Pharmacol, 1979)

How the values were obtained:
Assay type in all cases: ADME, organism-based
[1] = Plasma concentration in healthy subject (7 subjects) at 50 mg, po administered as single dose measured after 9 hrs by gas chromatography; conditions: human
[2] = test system: Homo sapiens; assay: First order inter-compartment transfer rate constant from central to tissue compartment in healthy subject (7 subjects) at 50 mg, iv by three compartment open model; conditions: in vivo
[3] = Plasma concentration in healthy subject (7 subjects) at 50 mg, po administered as single dose measured after 4.5 hrs by gas chromatography; conditions: human
[4] = test system: Homo sapiens; assay: First order inter-compartment transfer rate constant from central to deep tissue compartment in healthy subject (7 subjects) at 50 mg, iv by three compartment open model; conditions: in vivo
[5] = Elimination rate constant in healthy subject (7 subjects) at 50 mg, po administered as single dose; conditions: human, in vivo
[6] = Total volume of distribution in healthy subject (7 subjects) at 50 mg, iv by three compartment open model; conditions: human, in vivo
[7] = Plasma concentration in healthy subject (7 subjects) at 50 mg, po administered as single dose measured after 4 hrs by gas chromatography; conditions: human
[8] = Plasma concentration in healthy subject (7 subjects) at 50 mg, po administered as single dose measured after 6 hrs by gas chromatography; conditions: human
[9] = test system: Homo sapiens; assay: First order inter-compartment transfer rate constant from tissue to central compartment in healthy subject (7 subjects) at 50 mg, iv by three compartment open model; conditions: in vivo
[10] = Plasma concentration in healthy subject (7 subjects) at 50 mg, po administered as single dose measured after 5.5 hrs by gas chromatography; conditions: human
[11] = Plasma concentration in healthy subject (7 subjects) at 50 mg, po administered as single dose measured after 7 hrs by gas chromatography; conditions: human
[12] = Plasma concentration in healthy subject (7 subjects) at 50 mg, po administered as single dose measured after 3 hrs by gas chromatography; conditions: human
[13] = Plasma concentration in healthy subject (7 subjects) at 50 mg, po administered as single dose measured after 8 hrs by gas chromatography; conditions: human
[14] = Plasma clearance in healthy subject (7 subjects) at 50 mg, iv by three compartment open model; conditions: human
[15] = Oral bioavailability in healthy subject (7 subjects) at 50 mg administered as single dose; conditions: human, in vivo
[16] = test system: Homo sapiens; assay: Tlag in healthy subject (7 subjects) at 50 mg, po administered as single dose; conditions: in vivo
[17] = Plasma concentration in healthy subject (7 subjects) at 50 mg, po administered as single dose measured after 1.5 hrs by gas chromatography; conditions: human
[18] = Plasma concentration in healthy subject (7 subjects) at 50 mg, po administered as single dose measured after 6.5 hrs by gas chromatography; conditions: human
[19] = Cmax in healthy subject (7 subjects) at 50 mg, iv measured after 5 mins; design: dose 50 mg, route intravenous; conditions: human, in vivo
[20] = Elimination rate constant in healthy subject (7 subjects) at 50 mg, iv by three compartment open model; conditions: human, in vivo
[21] = Plasma concentration in healthy subject (7 subjects) at 50 mg, po administered as single dose measured after 2 hrs by gas chromatography; conditions: human
[22] = Plasma concentration in healthy subject (7 subjects) at 50 mg, po administered as single dose measured after 3.5 hrs by gas chromatography; conditions: human
[23] = Plasma concentration in healthy subject (7 subjects) at 50 mg, po administered as single dose measured after 1 hr by gas chromatography; conditions: human
[24] = Plasma concentration in healthy subject (7 subjects) at 50 mg, po administered as single dose measured after 2.5 hrs by gas chromatography; conditions: human
[25] = test system: Homo sapiens; assay: First order inter-compartment transfer rate constant from deep tissue to central compartment in healthy subject (7 subjects) at 50 mg, iv by three compartment open model; conditions: in vivo
[26] = Cmax in healthy subject (7 subjects) at 50 mg, po administered as single dose; design: dose 50 mg, route oral; conditions: human, in vivo
[27] = Terminal half life in healthy subject (7 subjects) at 50 mg, iv by three compartment open model; conditions: human, in vivo, read-out: beta t1/2 (converted)
[28] = Plasma concentration in healthy subject (7 subjects) at 50 mg, po administered as single dose measured after 5 hrs by gas chromatography; conditions: human
[29] = AUC (0 to infinity) in healthy subject (7 subjects) at 50 mg, iv by three compartment open model; design: dose 50 mg, route intravenous, time infinity; conditions: human, in vivo
[30] = test system: Homo sapiens; assay: Fast disposition half life in healthy subject (7 subjects) at 50 mg, iv by three compartment open model; conditions: in vivo
[31] = Terminal half life in healthy subject (7 subjects) at 50 mg, po administered as single dose; conditions: human, in vivo, read-out: beta t1/2 (converted)
[32] = AUC (0 to infinity) in healthy subject (7 subjects) at 50 mg, po administered as single dose; design: dose 50 mg, route oral, time infinity; conditions: human, in vivo
[33] = Slow disposition half life in healthy subject (7 subjects) at 50 mg, iv by three compartment open model; conditions: human, in vivo, read-out: alphat1/2 (converted)
[34] = Tmax in healthy subject (7 subjects) at 50 mg, po administered as single dose; conditions: human, in vivo

## O=C([O-])Cc1ccccc1Nc1c(Cl)cccc1Cl.[Na+] [DICLOFENAC SODIUM]
[1]
  concentration at 9 h: 3 ng/mL
[2]
  K: 5.5 h⁻¹
[3]
  concentration at 4.5 h: 215 ng/mL
[4]
  K: 2.6 h⁻¹
[5]
  k el: 0.000183 s⁻¹
[6]
  Vd: 0.172 L/kg
[7]
  concentration at 4 h: 110 ng/mL
[8]
  concentration at 6 h: 35 ng/mL
[9]
  K: 5.2 h⁻¹
[10]
  concentration at 5.5 h: 54 ng/mL
[11]
  concentration at 7 h: 15 ng/mL
[12]
  concentration at 3 h: 690 ng/mL
[13]
  concentration at 8 h: 11 ng/mL
[14]
  clearance: 263 mL/min
[15]
  bioavailability: 54%
[16]
  Tlag: 1.9 h
[17]
  concentration at 1.5 h: 100 ng/mL
[18]
  concentration at 6.5 h: 25 ng/mL
[19]
  Cmax: 7800 ng/mL
[20]
  k el: 0.00236 s⁻¹
[21]
  concentration at 2 h: 860 ng/mL
[22]
  concentration at 3.5 h: 240 ng/mL
[23]
  concentration at 1 h: 200 ng/mL
[24]
  concentration at 2.5 h: 710 ng/mL
[25]
  K: 0.8 h⁻¹
[26]
  Cmax: 2000 ng/mL
[27]
  half-life: 1.1 h
[28]
  concentration at 5 h: 95 ng/mL
[29]
  AUC(0-inf): 3290 ng·h/mL
[30]
  t1/2: 3 min
[31]
  half-life: 1.8 h
[32]
  AUC(0-inf): 1670 ng·h/mL
[33]
  half-life: 0.26 h
[34]
  Tmax: 2.5 h
